ChEMBL document CHEMBL1201862, “PubChem BioAssay data set” (2004)
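Values below derive from 48-hour exposures of cells grown in 96-well plates, with endpoints linearly interpolated between the two concentrations bracketing the appropriate inhibition level. GI50 is the concentration that inhibits growth by half.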 The source made the active and inactive calls. Rule as the data show it: active = GI50 up to about 1.1 µM and inactive = higher. Where a SMILES comes first, the peptide text is derived from it. The star is where a group is joined. Boc = CC(C)(C)OC(=O)*; OSu = O=C1CCC(=O)N1O*

Assays:
Assay in all cases: DTP human tumour cell line panel, 48 h
[1] = system: RXF 393
[2] = system: NCI-H460
[3] = system: HT-29
[4] = system: U-251
[5] = system: SK-MEL-28
[6] = system: HOP-92
[7] = system: HCT-15
[8] = system: T47D
[9] = system: HOP-62
[10] = system: M14
[11] = system: NCI-H23
[12] = system: K562
[13] = system: SK-MEL-5
[14] = system: KM12
[15] = system: MDA-MB-231
[16] = system: SNB-75
[17] = system: MDA-MB-435
[18] = system: OVCAR-3
[19] = system: SF-268

| SMILES | GI50 [1] | GI50 [2] | GI50 [3] | GI50 [4] | GI50 [5] | GI50 [6] | GI50 [7] | GI50 [8] | GI50 [9] | GI50 [10] | GI50 [11] | GI50 [12] | GI50 [13] | GI50 [14] | GI50 [15] | GI50 [16] | GI50 [17] | GI50 [18] | GI50 [19] |
| --- | --- | --- | --- | --- | --- | --- | --- | --- | --- | --- | --- | --- | --- | --- | --- | --- | --- | --- | --- |
| CC(C)(C)OC(=O)NC(Cc1ccc(O)cc1)C(=O)NC(CCCCN)C(=O)NC(Cc1ccc(O)cc1)C(=O)NC(CCCCN)C(=O)ON1C(=O)CCC1=O (stereo unspecified) (Boc-YKYK-OSu; configuration not given here) | > 100 µM (inactive) | > 100 µM (inactive) | 89.3 µM (inactive) | > 100 µM (inactive) | > 100 µM (inactive) | > 100 µM (inactive) | > 100 µM | > 100 µM (inactive) | > 100 µM (inactive) | > 100 µM (inactive) | > 100 µM (inactive) | > 100 µM (inactive) | > 100 µM (inactive) | > 100 µM (inactive) | > 100 µM (inactive) | > 100 µM (inactive) | – | – | – |
| C[N+]1(CCCl)CC[N+](C)(CCCl)CC1 (stereo unspecified) | > 100 µM (inactive) | > 100 µM (inactive) | > 100 µM (inactive) | > 100 µM (inactive) | > 100 µM (inactive) | – | > 100 µM | > 100 µM (inactive) | > 100 µM (inactive) | > 100 µM (inactive) | > 100 µM (inactive) | > 100 µM (inactive) | > 100 µM (inactive) | > 100 µM (inactive) | > 100 µM (inactive) | 42.1 µM (inactive) | > 100 µM (inactive) | > 100 µM (inactive) | > 100 µM (inactive) |
| Oc1cc(-c2cccc3ccccc23)nc2ncccc12 | 0.015 µM (active) | 0.0443 µM (active) | 0.0173 µM (active) | 0.0211 µM (active) | 0.0546 µM (active) | 0.434 µM (active) | 0.00627 µM | – | 0.962 µM (active) | 0.0159 µM (active) | 0.035 µM (active) | 0.00525 µM (active) | 0.0021 µM (active) | 0.0122 µM (active) | 0.172 µM (active) | 0.00684 µM (active) | 0.000865 µM (active) | 0.00457 µM (active) | 0.0201 µM (active) |
| CN(C(=O)OC(C)(C)C)[C@H]1CCCC[C@H]1N1CCCC1 | – | – | > 100 µM (inactive) | > 100 µM (inactive) | > 100 µM (inactive) | – | > 100 µM | > 100 µM (inactive) | > 100 µM (inactive) | > 100 µM (inactive) | > 100 µM (inactive) | > 100 µM (inactive) | > 100 µM (inactive) | > 100 µM (inactive) | > 100 µM (inactive) | – | > 100 µM (inactive) | > 100 µM (inactive) | > 100 µM (inactive) |
| CCOc1ccncc1[N+](=O)[O-] | > 100 µM (inactive) | – | > 100 µM (inactive) | > 100 µM (inactive) | > 100 µM (inactive) | – | > 100 µM | > 100 µM (inactive) | > 100 µM (inactive) | > 100 µM (inactive) | > 100 µM (inactive) | > 100 µM (inactive) | > 100 µM (inactive) | > 100 µM (inactive) | > 100 µM (inactive) | > 100 µM (inactive) | > 100 µM (inactive) | – | > 100 µM (inactive) |
| CCOC(=O)CCc1cn2cc(Br)nc(OC)c2n1 | 40.2 µM (inactive) | > 100 µM (inactive) | 17.9 µM (inactive) | 65.6 µM (inactive) | > 100 µM (inactive) | – | 6.5 µM | 46.3 µM (inactive) | 53.2 µM (inactive) | > 100 µM (inactive) | 67.5 µM (inactive) | 4.75 µM (inactive) | 7.85 µM (inactive) | 5.41 µM (inactive) | 39.2 µM (inactive) | 26.1 µM (inactive) | 2.82 µM (inactive) | 57.7 µM (inactive) | > 100 µM (inactive) |
| CCCCCCCCCCCCCCCCCc1cccc(OCOCCOC)c1CO | > 100 µM (inactive) | > 100 µM (inactive) | > 100 µM (inactive) | > 100 µM (inactive) | > 100 µM (inactive) | > 100 µM (inactive) | > 100 µM | – | > 100 µM (inactive) | > 100 µM (inactive) | > 100 µM (inactive) | > 100 µM (inactive) | > 100 µM (inactive) | > 100 µM (inactive) | > 100 µM (inactive) | > 100 µM (inactive) | > 100 µM (inactive) | > 100 µM (inactive) | > 100 µM (inactive) |
| [N-]=[N+]=CC(=O)OC(CCl)CCl | > 100 µM (inactive) | 25.2 µM (inactive) | > 100 µM (inactive) | > 100 µM (inactive) | > 100 µM (inactive) | > 100 µM (inactive) | > 100 µM | – | > 100 µM (inactive) | – | > 100 µM (inactive) | > 100 µM (inactive) | 46.3 µM (inactive) | > 100 µM (inactive) | > 100 µM (inactive) | – | > 100 µM (inactive) | > 100 µM (inactive) | > 100 µM (inactive) |
| CCCCCC(=O)OCC(=O)[C@H]1[C@H](C)C[C@H]2[C@@H]3C[C@H](F)C4=C/C(=N/OC(=O)c5cccc6c(=O)c7ccccc7[nH]c56)C=C[C@]4(C)[C@H]3[C@@H](O)C[C@@]21C | – | – | 21.7 µM (inactive) | 45.9 µM (inactive) | – | 73.1 µM (inactive) | 26.6 µM | 19 µM (inactive) | 33.4 µM (inactive) | 28.6 µM (inactive) | 29.6 µM (inactive) | 46.5 µM (inactive) | 14.7 µM (inactive) | 10.7 µM (inactive) | 40.8 µM (inactive) | 19.1 µM (inactive) | 23.8 µM (inactive) | 18.9 µM (inactive) | 53.8 µM (inactive) |
| c1ccc(-c2nnn3c2NC2=C(CCCC2)C3c2ccccc2)cc1 (stereo unspecified) | 17.1 µM (inactive) | 23.4 µM (inactive) | 15.1 µM (inactive) | 12.5 µM (inactive) | – | – | 1.54 µM | 22.5 µM (inactive) | 16.4 µM (inactive) | 18.8 µM (inactive) | 25.8 µM (inactive) | 10.3 µM (inactive) | 14.2 µM (inactive) | 15.5 µM (inactive) | 24.6 µM (inactive) | – | 5.71 µM (inactive) | 18.4 µM (inactive) | 21.3 µM (inactive) |
| CC(C)CN1CN(c2ccccc2)C2(CCN(CC(C)(c3ccc(F)cc3)C3OCCO3)CC2)C1=O (stereo unspecified) | 6.25 µM (inactive) | – | 1.73 µM (inactive) | 4.75 µM (inactive) | 3.18 µM (inactive) | – | 3.27 µM | 2.75 µM (inactive) | 3.45 µM (inactive) | 2.36 µM (inactive) | 2.09 µM (inactive) | 3.08 µM (inactive) | 2.02 µM (inactive) | 3.72 µM (inactive) | – | 7.33 µM (inactive) | 6.62 µM (inactive) | 10.3 µM (inactive) | 8.39 µM (inactive) |
| CC(=O)Oc1ccc(-c2cc3ccccc3oc2=O)cc1 | – | > 100 µM (inactive) | > 100 µM (inactive) | > 100 µM (inactive) | > 100 µM (inactive) | 60.8 µM (inactive) | > 100 µM | 52.8 µM (inactive) | > 100 µM (inactive) | > 100 µM (inactive) | > 100 µM (inactive) | 83.4 µM (inactive) | – | 18.7 µM (inactive) | > 100 µM (inactive) | 56.6 µM (inactive) | > 100 µM (inactive) | 6.27 µM (inactive) | > 100 µM (inactive) |
| CN(c1ccccc1)S(=O)(=O)c1ccccc1[N+](=O)[O-] | > 100 µM (inactive) | 77.1 µM (inactive) | 39.8 µM (inactive) | > 100 µM (inactive) | > 100 µM (inactive) | – | > 100 µM | 62.5 µM (inactive) | > 100 µM (inactive) | > 100 µM (inactive) | > 100 µM (inactive) | 36.3 µM (inactive) | > 10 µM (inactive) | > 100 µM (inactive) | 67.9 µM (inactive) | 96.6 µM (inactive) | 71.9 µM (inactive) | > 100 µM (inactive) | > 100 µM (inactive) |
| Cc1nc2c(=O)n(C)ncc2[nH]1 | > 100 µM (inactive) | > 100 µM (inactive) | > 100 µM (inactive) | > 100 µM (inactive) | > 100 µM (inactive) | – | > 100 µM | > 100 µM (inactive) | > 100 µM (inactive) | > 100 µM (inactive) | > 100 µM (inactive) | > 100 µM (inactive) | > 100 µM (inactive) | > 100 µM (inactive) | > 100 µM (inactive) | 22.6 µM (inactive) | > 100 µM (inactive) | > 100 µM (inactive) | > 100 µM (inactive) |
| C=C(Cl)C(C)(Cl)CCC(Cl)C(C)C (stereo unspecified) | > 100 µM (inactive) | > 100 µM (inactive) | 66.8 µM (inactive) | > 100 µM (inactive) | > 100 µM (inactive) | 87.1 µM (inactive) | – | – | > 100 µM (inactive) | 57.7 µM (inactive) | > 100 µM (inactive) | 51.5 µM (inactive) | > 100 µM (inactive) | > 100 µM (inactive) | > 100 µM (inactive) | 24.6 µM (inactive) | > 100 µM (inactive) | > 100 µM (inactive) | > 100 µM (inactive) |
| c1ccc(NN=C(c2ccccn2)c2ccccn2)nc1 | 0.583 µM (active) | 0.153 µM (active) | < 0.01 µM (active) | 0.318 µM (active) | 0.869 µM (active) | 0.488 µM (active) | 0.0893 µM | – | 0.346 µM (active) | 0.152 µM (active) | 0.0408 µM (active) | 0.463 µM (active) | 0.0893 µM (active) | 0.552 µM (active) | 0.389 µM (active) | 2.56 µM (inactive) | 0.817 µM (active) | < 0.0217 µM (active) | 0.388 µM (active) |
